Data: ChEMBL document CHEMBL1150976, “The selectivity of protein kinase inhibitors: a further update” (Biochem J, 2007)

Legend:
[1] = target: T1, Mitogen-activated protein kinase 15 (Homo sapiens) (UniProt Q8TD08); test: Percentage ERK8 activity remaining in the presence of 0.01uM inhibitor
T1 sequence (whole entry): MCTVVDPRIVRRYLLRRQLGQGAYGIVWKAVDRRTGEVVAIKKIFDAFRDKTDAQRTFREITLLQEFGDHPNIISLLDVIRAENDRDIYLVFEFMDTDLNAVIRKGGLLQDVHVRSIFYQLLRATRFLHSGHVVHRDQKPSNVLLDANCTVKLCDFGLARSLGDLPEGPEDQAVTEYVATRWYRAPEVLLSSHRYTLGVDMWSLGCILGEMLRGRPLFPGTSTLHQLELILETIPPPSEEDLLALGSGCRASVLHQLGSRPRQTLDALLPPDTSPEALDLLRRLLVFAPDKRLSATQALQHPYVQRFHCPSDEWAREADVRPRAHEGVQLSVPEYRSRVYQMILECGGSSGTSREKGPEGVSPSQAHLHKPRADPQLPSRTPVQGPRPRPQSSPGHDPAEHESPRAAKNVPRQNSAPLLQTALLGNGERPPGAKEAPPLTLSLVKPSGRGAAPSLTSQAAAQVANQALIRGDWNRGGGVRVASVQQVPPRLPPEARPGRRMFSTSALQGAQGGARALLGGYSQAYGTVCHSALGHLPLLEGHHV

[2] = target: T2, Serine/threonine-protein kinase 3 (Homo sapiens) (UniProt Q13188); test: Percentage MST2 activity remaining in the presence of 0.01uM inhibitor
T2 sequence (whole entry): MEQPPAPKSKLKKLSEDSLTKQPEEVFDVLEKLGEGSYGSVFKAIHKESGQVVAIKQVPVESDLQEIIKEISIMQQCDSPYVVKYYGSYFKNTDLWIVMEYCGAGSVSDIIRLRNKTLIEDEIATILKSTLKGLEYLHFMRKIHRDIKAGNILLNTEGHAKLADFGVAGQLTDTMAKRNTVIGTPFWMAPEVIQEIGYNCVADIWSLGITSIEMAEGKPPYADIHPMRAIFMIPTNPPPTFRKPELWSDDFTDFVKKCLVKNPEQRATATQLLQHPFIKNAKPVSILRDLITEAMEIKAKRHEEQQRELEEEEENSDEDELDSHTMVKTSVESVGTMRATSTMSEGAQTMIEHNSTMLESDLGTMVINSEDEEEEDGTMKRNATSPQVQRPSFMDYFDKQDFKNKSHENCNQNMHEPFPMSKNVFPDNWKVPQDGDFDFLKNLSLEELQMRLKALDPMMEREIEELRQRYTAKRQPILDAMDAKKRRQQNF

[3] = target: MAP kinase-activated protein kinase 2 (Homo sapiens) (UniProt P49137); test: Percentage MAPKAPK2 activity remaining in the presence of 0.01uM inhibitor
Chain of MAP kinase-activated protein kinase 2 (Homo sapiens) (P49137 whole entry, looked up): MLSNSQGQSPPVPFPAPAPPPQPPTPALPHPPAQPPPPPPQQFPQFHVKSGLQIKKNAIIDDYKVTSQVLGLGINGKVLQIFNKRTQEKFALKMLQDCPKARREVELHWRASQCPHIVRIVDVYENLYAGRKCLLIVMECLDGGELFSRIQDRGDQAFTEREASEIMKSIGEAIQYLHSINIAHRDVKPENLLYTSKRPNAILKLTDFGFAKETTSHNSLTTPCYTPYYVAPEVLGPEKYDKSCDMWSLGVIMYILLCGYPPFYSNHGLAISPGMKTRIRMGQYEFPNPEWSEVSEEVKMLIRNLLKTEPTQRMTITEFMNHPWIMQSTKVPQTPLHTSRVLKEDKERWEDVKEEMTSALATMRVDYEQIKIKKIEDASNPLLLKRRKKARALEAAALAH

[4] = target: Homeodomain-interacting protein kinase 2 (Homo sapiens) (UniProt Q9H2X6); test: Percentage HIPK2 activity remaining in the presence of 0.01uM inhibitor
Chain of Homeodomain-interacting protein kinase 2 (Homo sapiens) (Q9H2X6 whole entry, looked up): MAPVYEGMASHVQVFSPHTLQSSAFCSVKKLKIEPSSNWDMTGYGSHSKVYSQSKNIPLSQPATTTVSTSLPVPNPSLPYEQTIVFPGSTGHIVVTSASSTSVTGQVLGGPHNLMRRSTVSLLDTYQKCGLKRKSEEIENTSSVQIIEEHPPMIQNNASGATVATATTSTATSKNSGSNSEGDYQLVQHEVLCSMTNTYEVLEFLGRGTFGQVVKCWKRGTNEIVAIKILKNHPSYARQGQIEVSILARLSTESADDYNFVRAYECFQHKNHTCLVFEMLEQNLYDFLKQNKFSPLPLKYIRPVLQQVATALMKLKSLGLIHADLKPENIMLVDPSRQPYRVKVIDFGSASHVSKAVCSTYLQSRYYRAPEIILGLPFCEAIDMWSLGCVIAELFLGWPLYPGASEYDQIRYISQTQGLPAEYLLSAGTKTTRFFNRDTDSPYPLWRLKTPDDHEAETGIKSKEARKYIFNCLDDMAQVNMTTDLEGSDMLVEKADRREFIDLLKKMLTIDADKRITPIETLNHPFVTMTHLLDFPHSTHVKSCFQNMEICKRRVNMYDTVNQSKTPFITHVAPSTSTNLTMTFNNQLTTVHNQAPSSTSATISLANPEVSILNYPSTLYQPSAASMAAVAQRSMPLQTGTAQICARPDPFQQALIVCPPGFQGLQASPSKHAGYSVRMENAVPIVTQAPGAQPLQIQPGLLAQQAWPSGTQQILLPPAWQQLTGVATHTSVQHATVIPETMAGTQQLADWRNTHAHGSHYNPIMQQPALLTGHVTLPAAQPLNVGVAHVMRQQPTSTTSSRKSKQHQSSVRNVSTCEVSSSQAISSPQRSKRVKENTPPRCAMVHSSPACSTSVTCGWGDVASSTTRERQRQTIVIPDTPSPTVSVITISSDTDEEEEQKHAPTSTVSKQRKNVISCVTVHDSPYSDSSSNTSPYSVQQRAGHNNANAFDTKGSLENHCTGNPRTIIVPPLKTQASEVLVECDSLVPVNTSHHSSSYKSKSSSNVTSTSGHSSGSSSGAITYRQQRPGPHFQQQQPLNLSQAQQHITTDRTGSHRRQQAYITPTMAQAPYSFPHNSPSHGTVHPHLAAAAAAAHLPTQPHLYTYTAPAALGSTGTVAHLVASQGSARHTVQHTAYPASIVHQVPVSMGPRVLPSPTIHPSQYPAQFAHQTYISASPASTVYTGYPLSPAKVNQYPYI

[5] = target: Dual specificity mitogen-activated protein kinase kinase 1 (Homo sapiens) (UniProt Q02750); test: Percentage MKK1 activity remaining in the presence of 0.01uM inhibitor
Chain of Dual specificity mitogen-activated protein kinase kinase 1 (Homo sapiens) (Q02750 whole entry): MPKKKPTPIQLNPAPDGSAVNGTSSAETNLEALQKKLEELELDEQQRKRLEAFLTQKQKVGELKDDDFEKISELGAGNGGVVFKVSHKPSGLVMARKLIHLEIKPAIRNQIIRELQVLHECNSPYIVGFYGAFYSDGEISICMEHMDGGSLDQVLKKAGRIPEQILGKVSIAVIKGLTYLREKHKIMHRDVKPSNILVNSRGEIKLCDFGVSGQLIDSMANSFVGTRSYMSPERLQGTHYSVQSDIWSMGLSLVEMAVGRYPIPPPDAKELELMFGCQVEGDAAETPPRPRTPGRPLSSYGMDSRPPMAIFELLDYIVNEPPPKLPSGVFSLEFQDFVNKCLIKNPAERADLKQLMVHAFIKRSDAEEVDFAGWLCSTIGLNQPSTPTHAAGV

[6] = target: Serine/threonine-protein kinase N2 (Homo sapiens) (UniProt Q16513); test: Percentage PRK2 activity remaining in the presence of 0.01uM inhibitor
[7] = target: Mitogen-activated protein kinase 8 (Homo sapiens, UniProt P45983); test: Percentage JNK1 activity remaining in the presence of 0.01uM inhibitor
Chain of Mitogen-activated protein kinase 8 (P45983 whole entry): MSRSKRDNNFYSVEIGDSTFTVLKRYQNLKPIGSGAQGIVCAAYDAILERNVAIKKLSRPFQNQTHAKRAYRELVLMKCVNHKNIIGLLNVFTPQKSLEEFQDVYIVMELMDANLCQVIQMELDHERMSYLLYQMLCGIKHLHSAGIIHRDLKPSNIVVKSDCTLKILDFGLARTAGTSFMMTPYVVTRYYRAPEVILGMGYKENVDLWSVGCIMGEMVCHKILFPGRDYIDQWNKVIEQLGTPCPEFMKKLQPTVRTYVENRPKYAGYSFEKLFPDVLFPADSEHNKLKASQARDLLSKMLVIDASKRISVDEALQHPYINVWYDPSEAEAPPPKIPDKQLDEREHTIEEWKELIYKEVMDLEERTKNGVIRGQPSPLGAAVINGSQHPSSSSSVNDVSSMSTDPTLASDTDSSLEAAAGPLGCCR

[8] = target: Mitogen-activated protein kinase 9 (Homo sapiens, UniProt P45984); test: Percentage JNK2 activity remaining in the presence of 0.01uM inhibitor
[9] = target: Homeodomain-interacting protein kinase 3 (Homo sapiens) (UniProt Q9H422); test: Percentage HIPK3 activity remaining in the presence of 0.1uM inhibitor
[10] = target: Glycogen synthase kinase-3 beta (Homo sapiens, UniProt P49841); test: Percentage GSK3-beta activity remaining in the presence of 0.01uM inhibitor
Chain of Glycogen synthase kinase-3 beta (P49841 whole entry, looked up): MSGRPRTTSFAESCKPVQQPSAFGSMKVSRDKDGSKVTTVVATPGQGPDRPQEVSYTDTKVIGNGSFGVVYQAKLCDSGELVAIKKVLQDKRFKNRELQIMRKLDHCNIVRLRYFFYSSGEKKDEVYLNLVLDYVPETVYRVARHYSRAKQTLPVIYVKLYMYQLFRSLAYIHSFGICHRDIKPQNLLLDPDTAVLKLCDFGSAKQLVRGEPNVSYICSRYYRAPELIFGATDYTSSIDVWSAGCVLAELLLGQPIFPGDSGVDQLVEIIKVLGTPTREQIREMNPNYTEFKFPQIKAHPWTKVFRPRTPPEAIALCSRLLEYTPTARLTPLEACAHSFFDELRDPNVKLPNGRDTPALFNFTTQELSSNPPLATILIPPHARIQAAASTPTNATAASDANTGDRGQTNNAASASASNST

[11] = target: T3, Mitogen-activated protein kinase 13 (Homo sapiens) (UniProt O15264); test: Percentage p38delta activity remaining in the presence of 0.01uM inhibitor
T3 sequence (whole entry): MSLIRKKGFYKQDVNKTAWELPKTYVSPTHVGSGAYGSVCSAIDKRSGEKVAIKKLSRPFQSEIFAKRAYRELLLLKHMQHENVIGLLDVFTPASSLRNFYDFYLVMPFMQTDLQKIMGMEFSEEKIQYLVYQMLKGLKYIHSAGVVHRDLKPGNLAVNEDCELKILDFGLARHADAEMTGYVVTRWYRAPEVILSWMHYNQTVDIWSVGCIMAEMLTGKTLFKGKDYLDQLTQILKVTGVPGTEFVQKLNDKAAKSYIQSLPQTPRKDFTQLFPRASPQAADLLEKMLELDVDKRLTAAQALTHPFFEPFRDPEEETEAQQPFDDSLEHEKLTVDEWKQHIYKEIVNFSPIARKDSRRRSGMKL

[12] = target: Serine/threonine-protein kinase pim-2 (Homo sapiens, UniProt Q9P1W9); test: Percentage PIM2 activity remaining in the presence of 0.01uM inhibitor
[13] = target: Mitogen-activated protein kinase 11 (Homo sapiens) (UniProt Q15759); test: Percentage p38beta activity remaining in the presence of 0.01uM inhibitor
Chain of Mitogen-activated protein kinase 11 (Homo sapiens) (Q15759 whole entry): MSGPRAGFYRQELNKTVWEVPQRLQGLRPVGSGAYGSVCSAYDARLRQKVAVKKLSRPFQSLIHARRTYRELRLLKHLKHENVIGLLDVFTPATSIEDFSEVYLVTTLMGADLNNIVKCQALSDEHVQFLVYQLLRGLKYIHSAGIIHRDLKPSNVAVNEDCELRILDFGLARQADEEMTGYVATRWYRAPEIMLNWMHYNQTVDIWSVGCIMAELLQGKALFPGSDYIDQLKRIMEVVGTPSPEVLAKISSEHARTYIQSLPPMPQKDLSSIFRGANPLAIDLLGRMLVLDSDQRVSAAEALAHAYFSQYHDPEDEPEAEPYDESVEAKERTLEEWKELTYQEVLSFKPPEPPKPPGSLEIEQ

[14] = target: Ribosomal protein S6 kinase alpha-1 (Homo sapiens) (UniProt Q15418); test: Percentage RSK1 activity remaining in the presence of 0.01uM inhibitor
[15] = target: Proto-oncogene tyrosine-protein kinase LCK (Mus musculus) (UniProt P06240); test: Percentage Lck activity remaining in the presence of 0.01uM inhibitor
Chain of Proto-oncogene tyrosine-protein kinase LCK (Mus musculus) (P06240 2-509 limits assumed): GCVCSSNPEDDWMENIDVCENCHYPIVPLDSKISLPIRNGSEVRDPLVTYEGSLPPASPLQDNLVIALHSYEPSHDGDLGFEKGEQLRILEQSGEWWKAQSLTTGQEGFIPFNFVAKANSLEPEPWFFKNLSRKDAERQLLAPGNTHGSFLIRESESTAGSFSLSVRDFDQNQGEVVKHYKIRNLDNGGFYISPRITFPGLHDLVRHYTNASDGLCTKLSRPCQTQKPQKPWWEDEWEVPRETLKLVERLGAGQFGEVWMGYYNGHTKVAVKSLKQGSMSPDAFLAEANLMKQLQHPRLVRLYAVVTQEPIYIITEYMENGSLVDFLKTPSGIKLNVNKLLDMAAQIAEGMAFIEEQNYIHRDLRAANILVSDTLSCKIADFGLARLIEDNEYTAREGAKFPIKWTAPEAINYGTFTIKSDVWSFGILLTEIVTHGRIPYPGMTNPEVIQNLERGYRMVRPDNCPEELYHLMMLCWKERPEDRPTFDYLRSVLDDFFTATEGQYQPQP

[16] = target: T4, Aurora kinase C (Homo sapiens) (UniProt Q9UQB9); test: Percentage Aurora C activity remaining in the presence of 0.01uM inhibitor
T4 sequence (whole entry): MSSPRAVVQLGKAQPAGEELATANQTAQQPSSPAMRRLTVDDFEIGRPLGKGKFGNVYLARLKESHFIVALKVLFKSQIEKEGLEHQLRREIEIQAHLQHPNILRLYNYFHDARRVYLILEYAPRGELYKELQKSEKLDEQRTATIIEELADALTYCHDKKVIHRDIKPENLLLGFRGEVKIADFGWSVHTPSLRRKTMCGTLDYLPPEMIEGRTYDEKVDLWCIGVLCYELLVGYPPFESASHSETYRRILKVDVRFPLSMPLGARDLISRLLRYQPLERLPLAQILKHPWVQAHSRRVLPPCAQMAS

[17] = target: RAC-alpha serine/threonine-protein kinase (Homo sapiens) (UniProt P31749); test: Percentage PKBalpha activity remaining in the presence of 0.01uM inhibitor
Chain of RAC-alpha serine/threonine-protein kinase (Homo sapiens) (P31749 whole entry): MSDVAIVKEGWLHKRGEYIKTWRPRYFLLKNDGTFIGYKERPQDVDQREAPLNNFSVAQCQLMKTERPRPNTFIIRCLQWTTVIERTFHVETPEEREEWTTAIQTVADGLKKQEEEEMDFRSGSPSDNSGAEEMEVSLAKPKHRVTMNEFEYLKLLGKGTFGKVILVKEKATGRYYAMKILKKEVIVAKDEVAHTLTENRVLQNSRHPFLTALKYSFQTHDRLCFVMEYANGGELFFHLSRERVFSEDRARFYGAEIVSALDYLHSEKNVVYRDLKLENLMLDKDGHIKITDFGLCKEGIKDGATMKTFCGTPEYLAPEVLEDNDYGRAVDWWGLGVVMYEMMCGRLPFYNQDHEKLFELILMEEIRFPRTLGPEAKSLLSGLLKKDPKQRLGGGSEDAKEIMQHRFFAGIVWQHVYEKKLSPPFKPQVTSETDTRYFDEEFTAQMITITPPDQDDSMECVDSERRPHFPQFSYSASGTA

[18] = target: MAP kinase-interacting serine/threonine-protein kinase 2 (Homo sapiens) (UniProt Q9HBH9); test: Percentage MNK2 activity remaining in the presence of 0.01uM inhibitor
Chain of MAP kinase-interacting serine/threonine-protein kinase 2 (Homo sapiens) (Q9HBH9 whole entry, looked up): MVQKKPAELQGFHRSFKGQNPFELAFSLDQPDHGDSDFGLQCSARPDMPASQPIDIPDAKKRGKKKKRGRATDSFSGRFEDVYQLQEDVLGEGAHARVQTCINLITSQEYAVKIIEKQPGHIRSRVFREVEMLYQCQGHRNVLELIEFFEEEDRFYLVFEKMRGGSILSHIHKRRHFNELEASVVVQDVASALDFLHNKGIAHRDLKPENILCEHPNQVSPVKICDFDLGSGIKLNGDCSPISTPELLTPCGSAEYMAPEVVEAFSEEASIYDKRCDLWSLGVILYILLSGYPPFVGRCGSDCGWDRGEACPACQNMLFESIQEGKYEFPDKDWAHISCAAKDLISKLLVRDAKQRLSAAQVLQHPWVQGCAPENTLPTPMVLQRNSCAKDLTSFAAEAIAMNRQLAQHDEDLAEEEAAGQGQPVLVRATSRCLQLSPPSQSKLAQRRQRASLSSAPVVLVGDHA

[19] = target: Serine/threonine-protein kinase Nek7 (Homo sapiens) (UniProt Q8TDX7); test: Percentage NEK7 activity remaining in the presence of 0.01uM inhibitor
Chain of Serine/threonine-protein kinase Nek7 (Homo sapiens) (Q8TDX7 whole entry, looked up): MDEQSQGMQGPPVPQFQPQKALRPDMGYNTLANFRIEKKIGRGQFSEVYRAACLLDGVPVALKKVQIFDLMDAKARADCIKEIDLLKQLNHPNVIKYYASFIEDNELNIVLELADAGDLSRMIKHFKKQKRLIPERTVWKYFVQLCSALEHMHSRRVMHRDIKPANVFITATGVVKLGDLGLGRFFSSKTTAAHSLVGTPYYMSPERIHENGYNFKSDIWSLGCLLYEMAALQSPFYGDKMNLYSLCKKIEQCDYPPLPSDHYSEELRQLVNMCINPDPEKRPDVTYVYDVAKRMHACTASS

[20] = target: Serine/threonine-protein kinase Nek6 (Homo sapiens) (UniProt Q9HC98); test: Percentage NEK6 activity remaining in the presence of 0.01uM inhibitor

| Compound | Activity [1] | Activity [2] | Activity [3] | Activity [4] | Activity [5] | Activity ([6]; filed as antagonist) | Activity [7] | Activity [8] | Activity [9] | Activity [10] | Activity [11] | Activity [12] | Activity [13] | Activity [14] | Activity [15] | Activity [16] | Activity [18] | Activity [19] | Activity [20] | Activity [17] | other results |
| --- | --- | --- | --- | --- | --- | --- | --- | --- | --- | --- | --- | --- | --- | --- | --- | --- | --- | --- | --- | --- | --- |
| Cc1n[nH]c2ccc(-c3cncc(OC[C@@H](N)Cc4c[nH]c5ccccc45)c3)cc12 | 61% | 76% | 92% | 73% | 84% | 17% | 89% | 94% | 71% | 81% | 86% | 59% | 114% | 78% | 97% | 100% | 97% | 86% | 95% |  | Activity ([17]; filed as antagonist): 5% |
| CN[C@@H]1C[C@H]2O[C@@](C)([C@@H]1OC)n1c3ccccc3c3c4c(c5c6ccccc6n2c5c31)C(=O)N[C@H]4O (stereo in doubt) | 92% |  | 75% | 109% | 75% | 10% | 79% | 92% |  | 77% | 94% | 73% | 105% |  |  | 71% | 103% | 99% | 104% | 79% | Activity ([2]; filed as antagonist): 2%; Activity ([14]; filed as antagonist): 25%; Activity ([15]; filed as antagonist): 50% |
| Cn1c2ccccc2c2c3c(c4c5ccccc5n(CCC#N)c4c21)CNC3=O |  |  |  |  |  |  |  |  | 74% |  |  |  |  |  |  |  |  |  |  |  |  |
| CC(C)CCN1c2nc(Nc3cc(F)c(O)c(F)c3)ncc2N(C)C(=O)C1C (configuration not stated) |  |  |  |  |  |  |  |  | 104% |  |  |  |  |  |  |  |  |  |  |  |  |
| Cn1cc(C2=C(c3cn(CCCSC(=N)N)c4ccccc34)C(=O)NC2=O)c2ccccc21 |  |  |  |  |  |  |  |  | 78% |  |  |  |  |  |  |  |  |  |  |  |  |
| O=C(NCCCNc1nc(Nc2cccc(NC(=O)N3CCCC3)c2)ncc1I)c1cccs1 |  | 96% | 108% | 95% | 50% |  | 104% | 101% | 94% | 82% | 91% | 108% | 94% | 100% | 97% |  |  | 111% | 96% | 90% | Activity ([1]; filed as antagonist): 40%; Activity [6]: 79%; Activity ([16]; filed as antagonist): 27%; Activity ([18]; filed as antagonist): 47% |
